According to US20240391948A1, “NOVEL COMPOUND THAT INHIBITS TNF-ALPHA GENERATION AND INFLAMMASOME ACTIVITY AND PREPARATION METHOD THEREFOR” (SHAPERON INC., priority 2021, published 2024):

Experiments:
Assay type in all cases: cell-based
[1] = tested on: J774A.1 (Mouse BALB/c monocyte macrophage cell line) cells; experiment: LPS-induced TNF-α secretion inhibition in J774A.1 cells; conditions: J774.A1, 1 μM compound, graded compared to taurodeoxycholic acid (positive control), read-out: TNF-α production inhibition grade
Summary of the method: (§1)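 Grades (A >100%, B 50–100%, C 20–50%, D <20%) express cytokine suppression by 1 μM compound relative to taurodeoxycholic acid. LPS-induced TNF-α and LPS+ATP-induced IL-1β secretion were measured in murine J774A.1 macrophage cells.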

[2] = tested on: U937 cells (human monocytic cell line); experiment: Pam2CSK4-induced TNF-α secretion inhibition in PMA-differentiated U937 cells; conditions: U-937, U937 cells differentiated with PMA, read-out: TNF-α production inhibition grade (IC50)
Summary of the method: (§2)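 Inhibition is given as IC50 (μM) in A-D bands, using distinct thresholds for TNF-α and for IL-1β. Secretion followed Pam2CSK4 stimulation (TNF-α) or BzATP stimulation (IL-1β) of compound-pretreated, PMA-differentiated U937 macrophages.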

[3] = tested on: J774A.1 (Mouse BALB/c monocyte macrophage cell line) cells; experiment: LPS+ATP-induced IL-1β secretion inhibition in J774A.1 cells; conditions: J774.A1, 1 μM compound, graded compared to taurodeoxycholic acid (positive control), read-out: IL-1β production inhibition grade
Summary of the method: as §1

[4] = tested on: U937 cells (human monocytic cell line); experiment: BzATP-induced IL-1β secretion inhibition in PMA-differentiated U937 cells; conditions: U-937, U937 cells differentiated with PMA, read-out: IL-1β production inhibition grade (IC50)
Summary of the method: as §2

Compound | inhibition at 1 µM [1] | IC50 [2] | inhibition at 1 µM [3] | IC50 [4]
C[C@H](CCC(=O)N[C@H](c1ccccc1)[C@H](C)S(=O)(=O)O)[C@H]1CC[C@H]2[C@@H]3CC[C@@H]4C[C@H](O)CC[C@]4(C)[C@H]3CC[C@]12C [NC10070] | 50 to 100% | < 500 nM | > 100% | < 50 nM
C[C@H](CCC(=O)N[C@H]1CCCC[C@H]1S(=O)(=O)O)[C@H]1CC[C@H]2[C@@H]3CC[C@@H]4C[C@H](O)CC[C@]4(C)[C@H]3C[C@H](O)[C@]12C [NC10042] | < 20% | 500 to 1000 nM | < 20% | ≥ 200 nM
CC[C@H]1[C@@H](O)[C@@H]2[C@H](C[C@H](O)[C@]3(C)[C@@H]([C@H](C)CCC(=O)N[C@H]4CCCC[C@H]4S(=O)(=O)O)CC[C@@H]23)[C@@]2(C)CC[C@@H](O)C[C@@H]12 [NC50027] | < 20% | 1000 to 2000 nM | 20 to 50% | ≥ 200 nM
C[C@H](CCC(=O)NCCN1CCOCC1)[C@H]1CC[C@H]2[C@@H]3CC[C@@H]4C[C@H](O)CC[C@]4(C)[C@H]3C[C@H](O)[C@]12C [NC10018] | 50 to 100% | ≥ 2000 nM | 20 to 50% | 50 to 100 nM
C[C@H](CCC(=O)N1CCC[C@@H](S(=O)(=O)O)C1)[C@H]1CC[C@H]2[C@@H]3CC[C@@H]4CC(=O)CC[C@]4(C)[C@H]3CC[C@]12C [NC30010] | > 100% | 500 to 1000 nM | 50 to 100% | < 50 nM
C[C@H](CCC(=O)NC[C@@H](C)S(=O)(=O)O)[C@H]1CC[C@H]2[C@@H]3CC[C@@H]4C[C@H](O)CC[C@]4(C)[C@H]3CC[C@]12C [NC10079] | 20 to 50% | 500 to 1000 nM | > 100% | < 50 nM
C[C@H](CCC(=O)NCCOS(=O)(=O)O)[C@H]1CC[C@H]2[C@@H]3CC[C@@H]4C[C@H](O)CC[C@]4(C)[C@H]3CC[C@]12C [NC10013] | < 20% | 500 to 1000 nM | 50 to 100% | 50 to 100 nM
CC[C@H]1[C@@H](O)[C@@H]2[C@H](C[C@H](O)[C@]3(C)[C@@H]([C@H](C)CCC(=O)N(CCO)CCS(=O)(=O)O)CC[C@@H]23)[C@@]2(C)CC[C@@H](O)C[C@@H]12 [NC50006] | < 20% | ≥ 2000 nM | < 20% | < 50 nM
CC[C@H]1[C@@H](O)[C@@H]2[C@H](CC[C@]3(C)[C@@H]([C@H](C)CCC(=O)NC4(CS(=O)(=O)O)CC4)CC[C@@H]23)[C@@]2(C)CC[C@@H](O)C[C@@H]12 [NC40032] | < 20% | 1000 to 2000 nM | < 20% | ≥ 200 nM
C[C@H](CCC(=O)NCS(=O)(=O)O)[C@H]1CC[C@H]2[C@@H]3CC[C@@H]4C[C@H](O)CC[C@]4(C)[C@H]3C[C@H](O)[C@]12C [NC10001] | < 20% | ≥ 2000 nM | > 100% | < 50 nM
CC[C@H]1[C@@H](O)[C@@H]2[C@H](CC[C@]3(C)[C@@H]([C@H](C)CCC(=O)N[C@H](CO)CS(=O)(=O)O)CC[C@@H]23)[C@@]2(C)CC[C@@H](O)C[C@@H]12 [NC40025] | 20 to 50% | 500 to 1000 nM | 20 to 50% | 50 to 100 nM
C[C@H](CCC(=O)NC[C@H](C)S(=O)(=O)O)[C@H]1CC[C@H]2[C@@H]3CC[C@@H]4CC(=O)CC[C@]4(C)[C@H]3CC[C@]12C [NC30022] | 20 to 50% | ≥ 2000 nM | 20 to 50% | ≥ 200 nM
C[C@H](CCC(=O)N1CC(S(=O)(=O)O)C1)[C@H]1CC[C@H]2[C@@H]3CC[C@@H]4C[C@H](O)CC[C@]4(C)[C@H]3C[C@H](O)[C@]12C [NC10028] | < 20% | ≥ 2000 nM | > 100% | 50 to 100 nM
C[C@H](CCC(=O)N(CCO)CCS(=O)(=O)O)[C@H]1CC[C@H]2[C@@H]3CC[C@@H]4CC(=O)CC[C@]4(C)[C@H]3CC[C@]12C [NC30006] | < 20% | 500 to 1000 nM | < 20% | ≥ 200 nM
C[C@H](CCC(=O)N1CC[C@H](S(=O)(=O)O)C1)[C@H]1CC[C@H]2[C@@H]3CC[C@@H]4CC(=O)CC[C@]4(C)[C@H]3CC[C@]12C [NC30033] | < 20% | 500 to 1000 nM | 20 to 50% | 50 to 100 nM
C[C@H](CCC(=O)N(CCS(=O)(=O)O)c1ccccc1)[C@H]1CC[C@H]2[C@@H]3[C@H](O)C[C@@H]4C[C@H](O)CC[C@]4(C)[C@H]3C[C@H](O)[C@]12C [NC20037] | < 20% | < 500 nM | 50 to 100% | < 50 nM
C[C@H](CCC(=O)NC[C@@H](C)S(=O)(=O)O)[C@H]1CC[C@H]2[C@@H]3CC[C@@H]4C[C@H](O)CC[C@]4(C)[C@H]3C[C@H](O)[C@]12C [NC10039] | 20 to 50% | 500 to 1000 nM | 50 to 100% | 50 to 100 nM
C[C@H](CCC(=O)N1CCN(C)CC1)[C@H]1CC[C@H]2[C@@H]3CC[C@@H]4C[C@H](O)CC[C@]4(C)[C@H]3C[C@H](O)[C@]12C [NC10019] | < 20% | 500 to 1000 nM | 20 to 50% | ≥ 200 nM
C[C@H](CCC(=O)N[C@@H](CO)CS(=O)(=O)O)[C@H]1CC[C@H]2[C@@H]3CC[C@@H]4C[C@H](O)CC[C@]4(C)[C@H]3CC[C@]12C [NC10080] | < 20% | 500 to 1000 nM | > 100% | 100 to 200 nM
C[C@H](CCC(=O)N1CCC[C@H](S(=O)(=O)O)C1)[C@H]1CC[C@H]2[C@@H]3CC[C@@H]4C[C@H](O)CC[C@]4(C)[C@H]3C[C@H](O)[C@]12C [NC10026] | < 20% | 1000 to 2000 nM | > 100% | < 50 nM
C[C@H](CS(=O)(=O)O)NC(=O)CC[C@@H](C)[C@H]1CC[C@H]2[C@@H]3CC[C@@H]4CC(=O)CC[C@]4(C)[C@H]3CC[C@]12C [NC30029] | < 20% | 500 to 1000 nM | 20 to 50% | ≥ 200 nM
C[C@H](CCC(=O)N[C@H](CS(=O)(=O)O)c1ccccc1)[C@H]1CC[C@H]2[C@@H]3CC[C@@H]4CC(=O)CC[C@]4(C)[C@H]3CC[C@]12C [NC30018] | < 20% | ≥ 2000 nM | < 20% | ≥ 200 nM
CC[C@H]1[C@@H](O)[C@@H]2[C@H](CC[C@]3(C)[C@@H]([C@H](C)CCC(=O)N4CCC[C@H](S(=O)(=O)O)C4)CC[C@@H]23)[C@@]2(C)CC[C@@H](O)C[C@@H]12 [NC40009] | < 20% | 1000 to 2000 nM | < 20% | 100 to 200 nM
CC[C@H]1[C@@H](O)[C@@H]2[C@H](CC[C@]3(C)[C@@H]([C@H](C)CCC(=O)N(CCS(=O)(=O)O)C4CCOCC4)CC[C@@H]23)[C@@]2(C)CC[C@@H](O)C[C@@H]12 [NC40008] | > 100% | < 500 nM | > 100% | < 50 nM
C[C@H](CCC(=O)N1CCC[C@H](S(=O)(=O)O)C1)[C@H]1CC[C@H]2[C@@H]3CC[C@@H]4C[C@H](O)CC[C@]4(C)[C@H]3CC[C@]12C [NC10060] | < 20% | ≥ 2000 nM | 50 to 100% | ≥ 200 nM
C[C@H](CCC(=O)N(CCS(=O)(=O)O)Cc1cccnc1)[C@H]1CC[C@H]2[C@@H]3CC[C@@H]4C[C@H](O)CC[C@]4(C)[C@H]3C[C@H](O)[C@]12C [NC10051] | < 20% | 1000 to 2000 nM | 50 to 100% | 50 to 100 nM
CC(C)[C@@H](CS(=O)(=O)O)NC(=O)CC[C@@H](C)[C@H]1CC[C@H]2[C@@H]3CC[C@@H]4C[C@H](O)CC[C@]4(C)[C@H]3C[C@H](O)[C@]12C [NC10032] | < 20% | ≥ 2000 nM | 50 to 100% | 50 to 100 nM
CC(C)[C@H](CS(=O)(=O)O)NC(=O)CC[C@@H](C)[C@H]1CC[C@H]2[C@@H]3CC[C@@H]4C[C@H](O)CC[C@]4(C)[C@H]3CC[C@]12C [NC10068] | < 20% | < 500 nM | > 100% | < 50 nM
CC[C@H]1[C@@H](O)[C@@H]2[C@H](CC[C@]3(C)[C@@H]([C@H](C)CCC(=O)N(CCO)CCS(=O)(=O)O)CC[C@@H]23)[C@@]2(C)CC[C@@H](O)C[C@@H]12 [NC40006] | 20 to 50% | 1000 to 2000 nM | 50 to 100% | ≥ 200 nM
